# Target: T1, BDNF (Homo sapiens, UniProt P23560)
# T1 construct: purchased human BDNF (Alomone Labs); noncovalent dimer; PDB 1B8M used only as docking model
# T1 sequence (P23560 129-247): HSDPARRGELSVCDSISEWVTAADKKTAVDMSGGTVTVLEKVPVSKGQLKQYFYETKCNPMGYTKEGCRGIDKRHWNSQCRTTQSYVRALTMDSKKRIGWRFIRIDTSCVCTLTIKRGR
# Experiment: surface plasmon resonance (Biacore T100, BDNF on CM5 chip, steady-state affinity fit)
# Format: binding
structure (smiles),measurement,value
O=c1cc(-c2ccc(O)cc2)oc2cc(O)cc(O)c12 [apigenin],Kd,~14.2 µM

# Reference: PMC10493664, “The neurotrophic activities of brain‐derived neurotrophic factor are potentiated by binding with apigenin, a common flavone in vegetables, in stimulating the receptor signaling” (CNS Neuroscience & Therapeutics, 2023)
